Here are results for two molecules from US7485434B2, “Method for screening compounds for those that modulate transducers of regulated CREB activity” (The Salk Institute for Biological Studies, priority 2005, dated 2009).

Assay [1] has as its system AMPK. The settings on record: cited from earlier work.
Assay [2] concerns TORC2. The experiment in a line: Cellular localization of TORC2 in primary rat hepatocytes. Particulars: wild-type or Ser171Ala TORC2. The format is cell-based. As to the method:
FIG. 20C illustrate the effect of AICAR and SIK1 on cellular localization of wild-type or Ser171 Ala TORC2 in primary rat hepatocytes. Cells were infected with adenoviruses for HA-tagged wild-type or mutant TORC2 and SIK1 as indicated. Infected cells were exposed to FSK and AICAR for 30 minutes. TORC2 localization was examined with anti-HA antiserum. Cells were counterstained with DAP1 to visualize nuclei.
Based on its ability to promote Ser171 phosphorylation, AMPK might be expected to inhibit nuclear entry of TORC2 in cells exposed to FSK. […] Confirming the pivotal role of Ser171 in this regard, mutant Ser171Ala TORC2 remained constitutively nuclear under both conditions.

For assay [3], the system named is gluconeogenic genes (PEPCK, PGC-1α, G6Pase). The experiment in a line: Q-PCR of gluconeogenic gene expression in primary rat hepatocytes. The format is cell-based. Particulars: primary hepatocytes. As to the method: Specifically, FIG. 17A illustrates the effect of TORC2 on induction of gluconeogenic genes (PEPCK, PGC-1α, G6Pase) by FSK (10 μM, 2 hr) in cultured primary rat hepatocytes infected with TORC2 or control GFP adenovinus as indicated.
FIGS. 18A-18H illustrate that the induction of the AMP kinase family member SIK1 by CREB during fasting attenuates the gluconeogenic program. Specifically, FIG. 18A illustrates the time course of PEPCK gene expression in primary rat hepatocytes following exposure to FSK. mRNA levels were determined by Q-PCR analysis.
FIG. 18C illustrates the effect of CHX pretreatment on induction of gluconeogenic genes (PEPCK, PGC-1α, G6Pase) by glucagon in primary rat hepatocytes. Relative mRNA levels are shown.
FIG. 19B summarizes the effect of SIK1 RNAi on gluconeogenic gene expression in primary rat hepatocytes, presenting Q-PCR analysis showing the relative induction of PEPCK, PGC-1α, and G6Pase mRNAs by glucagon in cells infected with control (US) or SIK1 RNAi expressing adenoviruses.
FIG. 20D summarizes the effect of AlCAR on expression of gluconeogenic genes (PEPCK, PGC-1α) in primary rat hepatocytes. Cells infected with mutant Ser171Ala TORC2 (171) adenovinus indicated. Treatment with AICAR and FSK is shown.
Rat primary hepatocytes were prepared from 200-300g of Sprague-Dawley rats by collagenase perfusion method as described previously (see Koo et al., 2004). […]

Assay [4] relates to TORC2. The experiment in a line: TORC2 phosphorylation in primary rat hepatocytes (Western blot). The format is cell-based. Particulars: primary hepatocytes; AICAR 1 mM, in the presence of FSK, 30 minutes. From the text: FIG. 18B illustrates the effect of CHX on levels of phospho (Ser171) TORC2 in primary rat hepatocytes treated with glucagon over a variety of time points, shown in hours. Western blot assay indicates the levels of TORC2, phospho (Ser171) TORC2 and CREB.
Specifically, FIG. 19A, top, presents a Western blot showing the effect of US and SIK1 RNAi adenoviruses on the levels of SIK1 protein in rat hepatocytes. FIG. 19A, bottom, presents a Western blot assay with nondiscriminating TORC2 antiserum, showing the effect of SIK1 RNAi adenovirus on TORC2 dephosphorylation (compare P-TORC2 and TORC2 bands) following exposure of primary rat hepatocytes to glucagon (Gluc). The arrow identifies phosphorylated TORC2.
Cells were exposed to AICAR and FSK for 30 minutes. Lower mobility bands (arrow) indicate phosphorylated TORC2 polypeptides.
Rat primary hepatocytes were prepared from 200-300g of Sprague-Dawley rats by collagenase perfusion method as described previously (see Koo et al., 2004). 1×10^6 cells were plated in 6 well plates with medium 199 (Invitrogen, Carlsbad, Calif.) supplemented by 10% FBS, 10 units/ml penicillin, 10 μg/ml streptomycin, and 10 nM dexamethasone for 3-6 hours. After attachment, cells were infected with adenoviruses for 16 hours. Subsequently, cells were maintained in medium 199 without FBS and dexamethasone for 24 hours (for cDNA expression adenoviruses) or 48 hours (for RNAi adenoviruses) and […] forskolin or 100 nM glucagon for 2 hours unless noted otherwise. For experiments with cycloheximide, 10 μg/ml cycloheximide was added 30 minutes prior to the addition of 100 nM glucagon.
Like other signaling pathways, cAMP stimulates gluconeogenic gene expression with burst-attenuation kinetics (see Sasaki et al., 1984). Following exposure of primary hepatocytes to Forskolin, PEPCK mRNA levels became maximal after 2 hours, returning to near baseline after 4 hours (see FIG. 18A). […] Consistent with this, CHX pre-treatment potentiated gluconeogenic gene expression in primary rat hepatocytes exposed to glucagon 2-3 fold (see FIG. 18C). […]

Turning to `CN(C)C(=N)N=C(N)N` [metformin], the “effect on AMPK” value in assay [1] is “activates AMPK”.

Consider `NC(=O)c1ncn([C@@H]2O[C@H](CO)[C@@H](O)[C@H]2O)c1N` [AICAR, 5-aminoimidazole-4-carboxamide riboside], for which the “effect on nuclear entry of TORC2 in cells exposed to FSK” value in assay [2] was “inhibited nuclear entry of wild-type, but not SerAla171 TORC2”. In addition, the “effect on induction of PEPCK and PGC-1α genes in response to FSK” value in assay [3] is “blocked induction of PEPCK and PGC-1α genes”. Besides, in assay [4], the “phosphorylation of endogenous TORC2” value is listed as “triggered robust phosphorylation of endogenous TORC2”.
